Assays:
Assay type in all cases: in vivo
[1] = test system: Monocotyledonous and dicotyledonous weed seeds and main crop seeds; test: Post-emergence test experiment, other weeds and crops (Table 4, 1000 g a.i./ha); conditions: 3 weeks in greenhouse, fresh weight inhibition
In short: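 Growth inhibition is scored on fresh weight. Spray solutions were made in acetone with tween-80, diluted in water, plus 1.5 L/ha methyl oleate emulsible concentrate. Plants from greenhouse-grown weed and crop seeds were treated post-emergence at 2-3 leaves, 2 weeks after sowing.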

Echinochloa crusgalli = test: Post-emergence test experiment, Echinochloa crusgalli; conditions: 1000 g a.i./ha, 3 weeks in greenhouse, fresh weight inhibition
In short: (§1)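 Test compounds dissolve in acetone, receive tween-80 and a methyl oleate emulsible concentrate synergist (1.5 liters per hectare), then are diluted in water and sprayed onto 2-3 leaf stage plants. After 3 weeks of greenhouse culture, fresh weight inhibition is determined.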

Digitaria sanguinalis = test: Post-emergence test experiment, Digitaria sanguinalis; conditions: 1000 g a.i./ha, 3 weeks in greenhouse, fresh weight inhibition
In short: as §1

Row | SMILES | Activity level (growth inhibition rate), Abutilon theophrasti Medic. [1] | Activity level (growth inhibition rate), Galium aparine [1] | Activity level (growth inhibition rate), Monochoria Vaginalis [1] | Activity level (growth inhibition rate), Echinochloa crusgalli (Echinochloa crusgalli) | Activity level (growth inhibition rate), Digitaria sanguinalis (Digitaria sanguinalis)
1 | C[C@@H](Oc1nc(F)c(Cl)c(N)c1Cl)C(=O)OCc1cccs1 [Compound 2-350] | 5 (Level 5: the growth inhibition rate is greater than 85%) | 5 (Level 5: the growth inhibition rate is greater than 85%) | 5 (Level 5: the growth inhibition rate is greater than 85%) | 5 (Level 5: the growth inhibition rate is greater than 85%) | 5 (Level 5: the growth inhibition rate is greater than 85%)
2 | CC(Oc1nc(F)c(Cl)c(N)c1Cl)C(=O)OCC=CCl (stereo not shown) [Compound 2-285] | 5 (Level 5: the growth inhibition rate is greater than 85%) | 5 (Level 5: the growth inhibition rate is greater than 85%) | 5 (Level 5: the growth inhibition rate is greater than 85%) | 5 (Level 5: the growth inhibition rate is greater than 85%) | 5 (Level 5: the growth inhibition rate is greater than 85%)
3 | CC(Oc1nc(F)c(Cl)c(N)c1Cl)C(=O)OCc1ccccc1C(F)(F)F (stereo not shown) [Compound 2-327] | 5 (Level 5: the growth inhibition rate is greater than 85%) | 5 (Level 5: the growth inhibition rate is greater than 85%) | 5 (Level 5: the growth inhibition rate is greater than 85%) | 5 (Level 5: the growth inhibition rate is greater than 85%) | 5 (Level 5: the growth inhibition rate is greater than 85%)
4 | C#CCSC(=O)C(C)Oc1nc(F)c(Cl)c(N)c1Cl (stereo not shown) [Compound 2-274] | 5 (Level 5: the growth inhibition rate is greater than 85%) | 5 (Level 5: the growth inhibition rate is greater than 85%) | 5 (Level 5: the growth inhibition rate is greater than 85%) | 5 (Level 5: the growth inhibition rate is greater than 85%) | 5 (Level 5: the growth inhibition rate is greater than 85%)
5 | Cc1ccc(CSC(=O)C(C)Oc2nc(F)c(Cl)c(N)c2Cl)cc1 (stereo not shown) [Compound 2-307] | 5 (Level 5: the growth inhibition rate is greater than 85%) | 5 (Level 5: the growth inhibition rate is greater than 85%) | 5 (Level 5: the growth inhibition rate is greater than 85%) | 5 (Level 5: the growth inhibition rate is greater than 85%) | 5 (Level 5: the growth inhibition rate is greater than 85%)
6 | CCCCC(CC)COC(=O)[C@@H](C)Oc1nc(F)c(Cl)c(N)c1Cl (stereo partly shown) [Compound 2-157] | 5 (Level 5: the growth inhibition rate is greater than 85%) | 5 (Level 5: the growth inhibition rate is greater than 85%) | 5 (Level 5: the growth inhibition rate is greater than 85%) | 5 (Level 5: the growth inhibition rate is greater than 85%) | 5 (Level 5: the growth inhibition rate is greater than 85%)
7 | C[C@@H](Oc1nc(F)c(Cl)c(N)c1Cl)C(=O)Sc1cccn1C [Compound 2-368] | 5 (Level 5: the growth inhibition rate is greater than 85%) | 5 (Level 5: the growth inhibition rate is greater than 85%) | 5 (Level 5: the growth inhibition rate is greater than 85%) | 5 (Level 5: the growth inhibition rate is greater than 85%) | 5 (Level 5: the growth inhibition rate is greater than 85%)
8 | CC(Oc1nc(F)c(Cl)c(N)c1Cl)C(=O)Sc1cccc(C(C)C)c1 (stereo not shown) [Compound 2-360] | 5 (Level 5: the growth inhibition rate is greater than 85%) | 5 (Level 5: the growth inhibition rate is greater than 85%) | 5 (Level 5: the growth inhibition rate is greater than 85%) | 5 (Level 5: the growth inhibition rate is greater than 85%) | 5 (Level 5: the growth inhibition rate is greater than 85%)
9 | CC(C)CCCCCOC(=O)[C@@H](C)Oc1nc(F)c(Cl)c(N)c1Cl [Compound 2-159] | 5 (Level 5: the growth inhibition rate is greater than 85%) | 5 (Level 5: the growth inhibition rate is greater than 85%) | 5 (Level 5: the growth inhibition rate is greater than 85%) | 5 (Level 5: the growth inhibition rate is greater than 85%) | 5 (Level 5: the growth inhibition rate is greater than 85%)
10 | C[C@@H](Oc1nc(F)c(Cl)c(N)c1Cl)C(=O)SCc1cccc(C#N)c1 [Compound 2-336] | 5 (Level 5: the growth inhibition rate is greater than 85%) | 5 (Level 5: the growth inhibition rate is greater than 85%) | 5 (Level 5: the growth inhibition rate is greater than 85%) | 5 (Level 5: the growth inhibition rate is greater than 85%) | 5 (Level 5: the growth inhibition rate is greater than 85%)
11 | CCCCCCCCCSC(=O)[C@@H](C)Oc1nc(F)c(Cl)c(N)c1Cl [Compound 2-176] | 5 (Level 5: the growth inhibition rate is greater than 85%) | 5 (Level 5: the growth inhibition rate is greater than 85%) | 5 (Level 5: the growth inhibition rate is greater than 85%) | 5 (Level 5: the growth inhibition rate is greater than 85%) | 5 (Level 5: the growth inhibition rate is greater than 85%)

— patent US12304890B2, “R-type pyridyloxycarboxylic acid, salt and ester derivative thereof, and preparation method therefor, and herbicidal composition and application thereof” (Qingdao Kingagroot Chemical Compound Co., Ltd., priority 2018, dated 2025)
